From US20250353873A1, “COMPOUNDS AND METHODS FOR MODULATING APOE EXPRESSION” (Ionis Pharmaceuticals, Inc., priority 2024, published 2025)
Read-outs that look alike come from different tables or passages of the source. Strand notation (5' to 3'): a small letter for the sugar, then the base; units joined by * are phosphorothioate-linked, units joined directly phosphodiester-linked; [ ] holds rarer units or linkages, { } end groups; capitals alone tell only the bases. [ms] = mesyl phosphoramidate linkage; e = 2'-O-(2-methoxyethyl) (MOE); k = constrained ethyl (cEt); [5mC] = 5-methylcytosine; d = 2'-deoxy (DNA)

How the values were obtained:
human APOE RNA [1] = assay: Duration of action study in APOE C57BL/6NTac-Apoeem7250 knock-in mice (Example 16); type: in vivo; conditions: 300 μg ICV
Outline: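 Knock-in mice (2-4 per group) received a single ICV bolus of 300 μg oligonucleotide or PBS. At various timepoints, cortex and spinal cord human APOE RNA was measured by RT-qPCR (RTS3073), normalized to mouse Ppia and expressed as % of PBS control.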

human APOE RNA [2] = assay: Potency (dose response, ED50) in APOE C57BL/6NTac-Apoeem7250 knock-in mice, 8 weeks (Example 15); type: in vivo; conditions: for ED 50 (μg) Cortex / ED 50 (μg) Spinal Cord: single ICV bolus, GraphPad Prism 10
Protocol: Modified oligonucleotides described above were tested in the APOE C57BL/6NTac-Apoeem7250 knock-in mouse model described above.
APOE C57BL/6NTac-Apoeem7250 knock-in mice were divided into groups of 3-4 mice each. A group of 4 mice received a single ICV bolus with PBS as a negative control.
Eight weeks post treatment, mice were sacrificed, and RNA was extracted from cortical brain tissue and spinal cord for quantitative real-time RT-PCR analysis of RNA expression of […] using human primer probe set RTS3073 (described herein above). APOE RNA levels were normalized to mouse Ppia. Mouse Ppia was amplified using primer probe set m_cyclo24 (described herein above). Results are presented as percent human APOE RNA relative to the amount of APOE RNA in PBS treated animals, (% control). N.C. indicates values that were not calculated.
The half maximal effective dose (ED50) of each modified oligonucleotide was calculated using GraphPad Prism 10 software (GraphPad Software, San Diego, CA).

BJAB cells [3] = system: BJAB cells
Protocol: (§1) Human APOE modified oligonucleotides were tested for potential immunostimulatory properties in an in vitro human BJAB activation assay.
(§2) Human Burkitt lymphoma B cells, BJAB cells (DSMZ, Cat #ACC 757) were cultured in RPMI1640 medium containing 20% fetal bovine serum at 37° C. and 5% CO2. Cells were maintained at a density of 0.5-0.7×10^6 cells per milliliter. Cells were transferred to 50 mL conical Falcon tubes and centrifuged at 330 RCF for 5 minutes before being resuspended at a concentration of 7.5×10^4 cells per milliliter in RPMI culture medium containing penicillin and streptomycin. 50 μL of the cell suspension was added to a v-bottom tissue culture treated 96-well microplate. 11 μl of 10× concentrated modified oligonucleotides was then added to the plate for a final concentration of 1.6 μM and incubated for 24 hours at 37° C. and 5% CO2.
(§3) After a treatment period of 24 hours, total RNA was isolated from the cells and CCL22 RNA levels were measured by quantitative real-time RT-PCR. CCL22 RNA levels were measured by human primer-probe set RTS49260 (forward sequence [sequence], designated herein as SEQ ID NO: 19; reverse sequence [sequence], designated herein as SEQ ID NO: 20; probe sequence [sequence], designated herein as SEQ ID NO: 21). CCL22 RNA levels were normalized to total RNA content, as measured by GAPDH. Human GAPDH was measured using the human primer-probe set RTS104 (forward sequence [sequence], designated herein as SEQ ID NO: 10; reverse sequence [sequence], designated herein as SEQ ID NO: 11; probe sequence [sequence], designated herein as SEQ ID NO: 12). Levels of CCL22 RNA is presented log fold increase of CCL22, relative to untreated control cells (UTC). The assignment of the immunostimulatory properties of the test compounds is based on the immunostimulatory properties of the internal control compounds in each assay.

human APOE RNA [4] = assay: Activity in APOE 1549 knock-in mice, single ICV bolus, 4 weeks (Example 8); type: in vivo; conditions: n = 6, single ICV bolus 300 μg, 4 weeks
Protocol: Modified oligonucleotides described above were tested in the 1549 APOE knock-in mouse model described above.
APOE knock-in mice were divided into groups of either 2 or 6 mice each as described in the tables below. Each mouse received a single intracerebroventricular (ICV) bolus of 300 μg of modified oligonucleotide. A group of either 3 or 6 mice received a single ICV bolus with PBS as a negative control.
Four weeks post treatment, mice were sacrificed and RNA was extracted from cortical brain tissue and spinal cord for quantitative real-time RT-PCR analysis of RNA expression of APOE using primer probe set RTS3073 (described herein above). APOE RNA levels were normalized to mouse Ppia. Mouse Ppia was amplified using primer probe set m_cyclo24 (described herein above). Results are presented as percent human APOE RNA relative to the amount of human APOE RNA in PBS treated animals, (% control). Each experiment is identified in separate tables below.

human APOE RNA [5] = assay: Dose-dependent inhibition of human APOE RNA in HepG2 cells, electroporation, 24 hours (Example 6); type: cell-based
Outline: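 IC50 derived from APOE RNA levels, given as percent of untreated control after GAPDH normalization (probe sets RTS3073 and RTS104). Oligonucleotides were delivered at multiple concentrations by electroporation into HepG2 cells seeded at 50,000 per well.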

BJAB cells [6] = assay: Evaluation of proinflammatory effects in BJAB assay, CCL22 RNA (Example 17); conditions: for inflammatory response in human BJAB cells: 24-hour culturing period, assay of Example 17; for LOG10 CCL22 relative to UTC / Immunostimulatory Properties: BJAB cells, 1.6 μM, 24 hours; for LOG10 CCL22 relative to UTC: CCL22 RNA normalized to GAPDH; for Immunostimulatory Properties: assigned relative to internal control compounds of each assay
Protocol: as §1, §2, §3

Substance	APOE RNA (% control) Cortex (human APOE RNA [1]; 7 days post-dose)	APOE RNA (% control) Cortex (human APOE RNA [1]; 14 days post-dose)	APOE RNA (% control) Spinal Cord (human APOE RNA [1]; 7 days post-dose)	APOE RNA (% control) Spinal Cord (human APOE RNA [1]; 14 days post-dose)	APOE RNA (% control) Cortex (human APOE RNA [2]; ICV dose 10 μg)	APOE RNA (% control) Cortex (human APOE RNA [2]; ICV dose 30 μg)	APOE RNA (% control) Cortex (human APOE RNA [2]; ICV dose 100 μg)	APOE RNA (% control) Cortex (human APOE RNA [2]; ICV dose 300 μg)	APOE RNA (% control) Cortex (human APOE RNA [2]; ICV dose 700 μg)	ED 50 (μg) Cortex (human APOE RNA [2])	APOE RNA (% control) Spinal Cord (human APOE RNA [2]; ICV dose 10 μg)	APOE RNA (% control) Spinal Cord (human APOE RNA [2]; ICV dose 30 μg)	APOE RNA (% control) Spinal Cord (human APOE RNA [2]; ICV dose 100 μg)	APOE RNA (% control) Spinal Cord (human APOE RNA [2]; ICV dose 300 μg)	APOE RNA (% control) Spinal Cord (human APOE RNA [2]; ICV dose 700 μg)	ED 50 (μg) Spinal Cord (human APOE RNA [2])	further results
Aks^mCeoTeoTesGesGksTdsGdzAdzAdzTds^mCdsTdsTdsTdsAdzTksTksAesAe (kA*e[5mC]eTeT*eG*kG*dT*dG[ms]dA[ms]dA[ms]dT*d[5mC]*dT*dT*dT*dA[ms]kT*kT*eA*eA) [Compound No. 1809635]	40 % control	30 % control	44 % control	27 % control	95 % control	84 % control	62 % control	30 % control	16 % control	146.7 µg	51 % control	27 % control	13 % control	13 % control	18 % control		inflammatory response in human BJAB cells (BJAB cells [3]): did not induce any inflammatory response
1785599: modified oligonucleotide complementary to human APOE RNA (k[5mC]*kT*kT*dG[ms]dG[ms]dT[ms]dG[ms]dA[ms]dA[ms]dT[ms]d[5mC]*dT*dT*dT*dA*dT*kT*kA*dA[ms]kA; antisense) [compound 1785599]					94 % control	72 % control	56 % control	37 % control	25 % control	143.3 µg	54 % control	38 % control	16 % control	13 % control	12 % control	12.18 µg	
Aes^mCeoTeoTesGesGksTdsGdzAdzAdzTds^mCdsTdsTdsTdsAdzTksTksAesAe (eA*e[5mC]eTeT*eG*kG*dT*dG[ms]dA[ms]dA[ms]dT*d[5mC]*dT*dT*dT*dA[ms]kT*kT*eA*eA) [Compound No. 1757576]	45 % control	32 % control	42 % control	25 % control	93 % control	92 % control	52 % control	30 % control	18 % control	135.7 µg	33 % control	15 % control	13 % control	9 % control	9 % control		APOE RNA (% control) Cortex (human APOE RNA [4]; Cortex): 26 % control; APOE RNA (% control) Spinal Cord (human APOE RNA [4]; Spinal Cord): 17 % control; inflammatory response in human BJAB cells (BJAB cells [3]): did not induce any inflammatory response
1746809 (k[5mC]*dT[ms]kT*dG[ms]kG*dT[ms]dG[ms]dA[ms]dA[ms]dT*d[5mC]*dT*dT*dT*dA[ms]dT*dT[ms]kA*kA*kA; antisense) [Compound 1746809]																	APOE RNA (% control) Cortex (human APOE RNA [1]; 112 days post-dose): 55 % control; APOE RNA (% control) Cortex (human APOE RNA [1]; 140 days post-dose): 66 % control; APOE RNA (% control) Spinal Cord (human APOE RNA [1]; 112 days post-dose): 86 % control; APOE RNA (% control) Spinal Cord (human APOE RNA [1]; 140 days post-dose): 107 % control
1693105: 6-10-4 MOE gapmer CTTGGTGAATCTTTATTAAA, linkages sosssszzzssssszssss (e[5mC]*eTeT*eG*eG*eT*dG[ms]dA[ms]dA[ms]dT*d[5mC]*dT*dT*dT*dA[ms]dT*eT*eA*eA*eA) [compound 1693105]																	IC50 (human APOE RNA [5]): 1100 nM; APOE RNA (% UTC) (human APOE RNA [5]; 5 nM): 117 % UTC; APOE RNA (% UTC) (human APOE RNA [5]; 13 nM): 104 % UTC; APOE RNA (% UTC) (human APOE RNA [5]; 33 nM): 118 % UTC; APOE RNA (% UTC) (human APOE RNA [5]; 82 nM): 91 % UTC; APOE RNA (% UTC) (human APOE RNA [5]; 205 nM): 101 % UTC; APOE RNA (% UTC) (human APOE RNA [5]; 512 nM): 59 % UTC; APOE RNA (% UTC) (human APOE RNA [5]; 1,280 nM): 43 % UTC; APOE RNA (% UTC) (human APOE RNA [5]; 3,200 nM): 23 % UTC; APOE RNA (% UTC) (human APOE RNA [5]; 8,000 nM): 21 % UTC; APOE RNA (% UTC) (human APOE RNA [5]; 20,000 nM): 6 % UTC
^mCksTksTksGdzGdzTdzGdzAdzAdzTds^mCdsTdsTdsTdsAdsTdsTksAksAdzAk (antisense k[5mC]*kT*kT*dG[ms]dG[ms]dT[ms]dG[ms]dA[ms]dA[ms]dT*d[5mC]*dT*dT*dT*dA*dT*kT*kA*dA[ms]kA) [Compound No. 1785602]	40 % control	30 % control	56 % control	28 % control	95 % control	90 % control	57 % control	31 % control	21 % control	153.2 µg	73 % control	40 % control	26 % control	20 % control	22 % control	26.9 µg	inflammatory response in human BJAB cells (BJAB cells [6]): did not induce any inflammatory response; LOG10 CCL22 relative to UTC (BJAB cells [6]): 0.34; Immunostimulatory Properties (BJAB cells [6]): Non-Inflammatory
TezTeoGeoGksTdsGdzAdzAdzTds^mCdsTdsTdsTdsAdzTksTksAesAesAes^mCe (antisense eT[ms]eTeGkG*dT*dG[ms]dA[ms]dA[ms]dT*d[5mC]*dT*dT*dT*dA[ms]kT*kT*eA*eA*eA*e[5mC]) [Compound No. 1809814]	62 % control	57 % control	84 % control	53 % control	97 % control	85 % control	72 % control	47 % control	37 % control	309.5 µg	81 % control	60 % control	45 % control	29 % control	28 % control	78.7 µg	inflammatory response in human BJAB cells (BJAB cells [6]): did not induce any inflammatory response; LOG10 CCL22 relative to UTC (BJAB cells [6]): 0.07; Immunostimulatory Properties (BJAB cells [6]): Non-Inflammatory
